PMC4711283, “Immobilization of halophilic Aspergillus awamori EM66 exochitinase on grafted k-carrageenan-alginate beads” (3 Biotech, 2016)

Test system: T1, A. awamori EM66 exochitinase
T1 construct: native secreted enzyme from culture supernatant of honey isolate, partially purified by ethanol fractionation, free (not immobilised)
Test: p-nitrophenol release at […] nm, Lineweaver-Burk plot
Type: biochemical, Aspergillus awamori
Conditions: free enzyme, partially purified; acetate buffer pH 5.0; 30 °C; apparent Km

SMILES: CC(=O)N[C@H]1[C@H](Oc2ccc([N+](=O)[O-])cc2)O[C@H](CO)[C@@H](O)[C@@H]1O [PNP-β-GlcNAc, p-nitrophenyl-β-D-N-acetyl glucoseaminide]
- Km: 0.33 mg/mL
